Source: patent publication US20030049253A1, “Polymeric conjugates for delivery of MHC-recognized epitopes via peptide vaccines” (priority 2001, published 2003)

Assays:
[1] = test system: CD4+ and CD8+ splenocytes; design: species or system BALB/c mice; conditions: mouse, in vivo
Mouse spleen cells = experiment: In vitro cytokine assay: IFN-γ ELISA of spleen cell culture supernatants; format: in vivo; conditions: spleen cells cultured with p7g peptide, 24 hours; limit of detection 5 pg/ml; FIG. 3
Description: In vitro cytokine assay. Mouse spleen cells were cultured with p7g peptides in parallel with the ELISpot assays. Culture supernatants were collected 24 hours after addition of peptide, and the concentrations of gamma interferon (IFN-γ) were determined by enzyme-linked immunosorbent assay (ELISA). Briefly, anti-mouse IFN-γ (R46A2; monoclonal antibody, Pharmingen) was diluted in coating buffer (pH 9.6) and coated (1 μg protein/well) onto 96-well enzyme-linked immunosorbent assay (ELISA) plates (Nunc Immunoplates; Nunc. Corp., Naperville, Ill.) by overnight incubation at 4° C. The plates were washed six times in wash buffer, then blocked with PBS containing 0.05% Tween 20 (Sigma), 1% low-fat dry milk (Carnation; Nestle Food Corp., Glendale, Calif.), and 4% goat serum (KPL Laboratories, Gaithersburg, Md.) for 1 hour. After washing, each plate was incubated with samples diluted in PBS containing 1% BSA and 0.05% Tween 20 for 1 hour. The plates were then incubated with rabbit anti-mouse IFN-γ (Cytlmmune Sciences, Inc. College, Md.) diluted 1:1000 in the same PBS solution for 1 hour and washed again six times. […] The bound mouse IFN-γ was quantitated by calorimetric reaction using p-nitrophenyl phosphate as a substrate (KPL Laboratories). The optical density (OD) was measured at 405 nm in a Bio-Tek Plate Reader (Winooski, Vt.). […]

[2] = test system: R5 and dual-tropic (R5/X4) HIV-1 strains; conditions: monocyte-derived macrophages, microglia, primary CD4(+) T cells; cited from earlier work
CD4 receptor = CD4 receptor (Homo sapiens, UniProt P01730); conditions: in vitro; cited from earlier work
[3] = test system: human amyloid β amino acid residues 1-42 (Aβ42 peptide); experiment: Antibody titer to Aβ42 peptide in vaccinated mice; format: in vivo; conditions: 100 μg Aβ42 peptide per injection s.c., day 0 and day 14; FIG. 5
Description: Mice were immunized with 100 μg Aβ42 peptide per injection. Aβ42 in PBS alone was injected as control. Mice were primed s.c. on day 0 and boosted on day 14. Detection used goat anti-mouse immunoglobulin conjugated to alkaline phosphatase and p-nitrophenyl phosphate.

## AMQMLKETI [free p7g peptide]
[1]
  CTL response and INF-γ expression (intracellular staining, flow cytometry): no CTL or INF-γ expression
Mouse spleen cells
  concentration of IFN-γ in culture supernatants (ELISA): no measurable IFN-γ

## AS TTTNYT [Peptide T]
[2]
  replication of HIV-1 strains: inhibits replication
CD4 receptor
  binding of isolated gp120 and HIV-1 to the CD4 receptor: inhibition of the binding

## Aβ42 peptide alone
[3]
  antibody titer to Aβ42 peptide: no detectable anti-peptide antibody

## Aβ42 peptide linked to HA
[3]
  antibody titer to Aβ42 peptide: substantial
